Test results: ChEMBL document CHEMBL4130592, “In Silico HTS and Structure Based Optimization of Indazole-Derived ULK1 Inhibitors” (ACS Med Chem Lett, 2017); call rule not given here
Values belong to the molecule of their own block, whether it stands above or below them.

Assays:
[1] = biological target: T1, Serine/threonine-protein kinase ULK1 (Homo sapiens, UniProt O75385); experiment: Inhibition of ATG13 binding to full-length ULK1 (unknown origin) expressed in HEK293T cells preincubated for 15 mins followed by human C-terminal FLAG-tagged ATG13 addition measured after 30 mins by Alphascreen assay; type: cell-based
T1 sequence (O75385 whole entry): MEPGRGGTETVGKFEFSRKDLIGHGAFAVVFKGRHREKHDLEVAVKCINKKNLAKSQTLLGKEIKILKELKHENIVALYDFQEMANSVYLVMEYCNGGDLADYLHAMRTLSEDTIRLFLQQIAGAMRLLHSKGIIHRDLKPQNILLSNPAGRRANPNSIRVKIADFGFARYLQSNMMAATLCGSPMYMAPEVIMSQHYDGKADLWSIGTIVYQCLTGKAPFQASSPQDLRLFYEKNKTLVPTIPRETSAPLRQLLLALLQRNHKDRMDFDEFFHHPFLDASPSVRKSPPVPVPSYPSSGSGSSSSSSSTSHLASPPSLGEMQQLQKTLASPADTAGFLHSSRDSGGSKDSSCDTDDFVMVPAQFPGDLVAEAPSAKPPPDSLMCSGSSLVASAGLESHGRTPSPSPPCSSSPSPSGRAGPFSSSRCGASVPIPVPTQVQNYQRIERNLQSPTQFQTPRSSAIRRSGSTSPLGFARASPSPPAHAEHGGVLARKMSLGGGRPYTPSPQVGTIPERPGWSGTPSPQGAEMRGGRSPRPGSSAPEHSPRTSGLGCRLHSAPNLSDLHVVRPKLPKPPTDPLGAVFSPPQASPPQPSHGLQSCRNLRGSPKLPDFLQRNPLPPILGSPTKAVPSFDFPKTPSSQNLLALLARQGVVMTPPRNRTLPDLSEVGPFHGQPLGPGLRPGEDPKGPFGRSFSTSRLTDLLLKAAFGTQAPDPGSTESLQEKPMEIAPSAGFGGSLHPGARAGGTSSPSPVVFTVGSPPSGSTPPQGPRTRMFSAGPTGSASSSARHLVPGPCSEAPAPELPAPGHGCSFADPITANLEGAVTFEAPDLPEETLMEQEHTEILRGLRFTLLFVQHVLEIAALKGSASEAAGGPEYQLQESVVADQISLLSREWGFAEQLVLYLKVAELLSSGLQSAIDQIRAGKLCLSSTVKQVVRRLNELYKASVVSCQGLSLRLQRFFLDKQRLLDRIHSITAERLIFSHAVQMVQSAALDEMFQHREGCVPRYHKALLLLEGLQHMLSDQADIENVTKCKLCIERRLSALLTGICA

Cytochrome P450 2D6 = Cytochrome P450 2D6 (Homo sapiens, UniProt P10635); experiment: Inhibition of CYP2D6 (unknown origin) at 10 uM; type: ADME
Cytochrome P450 3A4 = Cytochrome P450 3A4 (Homo sapiens, UniProt P08684); experiment: Inhibition of CYP3A4 (unknown origin) at 10 uM; type: ADME
[2] = Stability in rat microsomes; type: ADME, Microsome
Cytochrome P450 1A2 = biological target: T2, Cytochrome P450 1A2 (Homo sapiens, UniProt P05177); experiment: Inhibition of CYP1A2 (unknown origin) at 10 uM; type: ADME
T2 sequence (P05177 whole entry): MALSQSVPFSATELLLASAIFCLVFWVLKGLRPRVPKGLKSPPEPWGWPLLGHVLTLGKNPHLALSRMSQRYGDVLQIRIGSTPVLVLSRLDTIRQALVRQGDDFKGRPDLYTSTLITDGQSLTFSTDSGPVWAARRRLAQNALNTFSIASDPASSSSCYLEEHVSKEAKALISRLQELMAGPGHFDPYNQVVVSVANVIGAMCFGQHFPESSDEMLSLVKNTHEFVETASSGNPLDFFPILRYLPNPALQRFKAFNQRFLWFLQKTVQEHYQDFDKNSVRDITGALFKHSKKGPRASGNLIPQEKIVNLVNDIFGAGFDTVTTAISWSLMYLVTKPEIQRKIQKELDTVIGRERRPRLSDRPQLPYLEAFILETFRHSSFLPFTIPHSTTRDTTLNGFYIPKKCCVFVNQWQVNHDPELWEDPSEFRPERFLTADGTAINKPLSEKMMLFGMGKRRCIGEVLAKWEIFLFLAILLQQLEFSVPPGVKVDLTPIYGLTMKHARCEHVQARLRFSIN

[3] = Stability in mouse microsomes; type: ADME, Microsome
[4] = Stability in human microsomes; type: ADME, Microsome
Cytochrome P450 2C9 = Cytochrome P450 2C9 (Homo sapiens, UniProt P11712); experiment: Inhibition of CYP2C9 (unknown origin) at 10 uM; type: ADME
[5] = Half life in human microsomes; type: ADME, Microsome

Sequence of Cytochrome P450 3A4 (P08684 whole entry): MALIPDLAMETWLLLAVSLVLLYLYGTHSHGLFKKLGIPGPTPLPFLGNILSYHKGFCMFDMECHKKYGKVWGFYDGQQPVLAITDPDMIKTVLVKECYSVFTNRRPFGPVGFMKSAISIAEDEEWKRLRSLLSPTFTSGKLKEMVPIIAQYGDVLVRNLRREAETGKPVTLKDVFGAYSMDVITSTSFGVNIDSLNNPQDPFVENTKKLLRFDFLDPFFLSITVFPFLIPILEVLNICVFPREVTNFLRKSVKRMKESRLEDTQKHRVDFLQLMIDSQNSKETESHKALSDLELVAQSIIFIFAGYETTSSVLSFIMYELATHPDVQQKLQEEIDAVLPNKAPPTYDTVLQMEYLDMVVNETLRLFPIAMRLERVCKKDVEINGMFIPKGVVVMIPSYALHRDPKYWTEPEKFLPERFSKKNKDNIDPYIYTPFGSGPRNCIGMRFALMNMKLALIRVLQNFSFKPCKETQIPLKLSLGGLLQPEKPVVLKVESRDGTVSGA
Sequence of Cytochrome P450 2C9 (P11712 whole entry): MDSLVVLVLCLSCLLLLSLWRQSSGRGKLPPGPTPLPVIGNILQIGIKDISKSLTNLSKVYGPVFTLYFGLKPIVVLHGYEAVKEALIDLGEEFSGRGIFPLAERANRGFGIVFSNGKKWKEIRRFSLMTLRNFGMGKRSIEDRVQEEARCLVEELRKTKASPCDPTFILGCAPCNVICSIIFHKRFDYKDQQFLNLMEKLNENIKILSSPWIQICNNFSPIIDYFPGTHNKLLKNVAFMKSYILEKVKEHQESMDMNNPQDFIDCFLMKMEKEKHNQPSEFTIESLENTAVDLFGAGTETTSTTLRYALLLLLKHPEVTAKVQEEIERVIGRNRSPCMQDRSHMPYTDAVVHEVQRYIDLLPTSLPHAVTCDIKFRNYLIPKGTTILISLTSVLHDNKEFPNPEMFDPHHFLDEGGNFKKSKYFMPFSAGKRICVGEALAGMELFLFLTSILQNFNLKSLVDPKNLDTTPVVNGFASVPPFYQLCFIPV
Sequence of Cytochrome P450 2D6 (P10635 whole entry): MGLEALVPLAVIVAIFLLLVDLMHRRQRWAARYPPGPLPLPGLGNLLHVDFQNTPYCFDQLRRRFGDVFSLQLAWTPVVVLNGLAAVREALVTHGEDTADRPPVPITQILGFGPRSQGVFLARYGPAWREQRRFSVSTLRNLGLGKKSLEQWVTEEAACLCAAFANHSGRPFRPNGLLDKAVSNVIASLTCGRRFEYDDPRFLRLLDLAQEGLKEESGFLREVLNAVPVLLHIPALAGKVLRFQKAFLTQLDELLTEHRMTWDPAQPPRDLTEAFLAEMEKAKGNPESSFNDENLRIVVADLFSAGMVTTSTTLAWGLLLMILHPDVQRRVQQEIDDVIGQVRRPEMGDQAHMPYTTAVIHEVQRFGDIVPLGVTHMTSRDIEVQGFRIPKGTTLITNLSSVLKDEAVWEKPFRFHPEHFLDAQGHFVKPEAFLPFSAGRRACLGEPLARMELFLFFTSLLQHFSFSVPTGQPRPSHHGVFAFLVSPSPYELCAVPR

IC50 [1]: 477 nM
Structure (SMILES): COc1ccc(CNc2n[nH]c3ccc(NC(=O)C4CCCC(N)C4)cc23)cc1 (stereo unspecified)

IC50 [1]: 239 nM
Structure (SMILES): NC1CCCC(C(=O)Nc2ccc3[nH]nc(Nc4ccnc5ccccc45)c3c2)C1 (stereo unspecified)

IC50 [1]: 242 nM
Structure (SMILES): NC1CCCC(C(=O)Nc2ccc3[nH]nc(NC(=O)c4ccccc4)c3c2)C1 (stereo unspecified)

IC50 [1]: 14000 nM
Structure (SMILES): Nc1n[nH]c2ccc(NC(=O)[C@H]3CC[C@H](N)CC3)cc12

IC50 [1]: 1830 nM
Structure (SMILES): O=C(Nc1ccc2[nH]nc(Nc3cccc4ccccc34)c2c1)C1CCOCC1

inhibition (INH) (Cytochrome P450 2D6): Not Active
inhibition (INH) (Cytochrome P450 3A4): Not Active
Stability [2]: Stable
inhibition (INH) (Cytochrome P450 1A2): Not Active
Stability [3]: Stable
Stability [4]: Stable
inhibition (INH) (Cytochrome P450 2C9): Not Active
IC50 [1]: 315 nM
Structure (SMILES): O=C(Nc1ccc2[nH]nc(Nc3cccc4ccccc34)c2c1)C1CCNCC1

IC50 [1]: 288 nM
Structure (SMILES): NC1CCCC(C(=O)Nc2ccc3[nH]nc(Nc4cccc(C(F)(F)F)c4)c3c2)C1 (stereo unspecified)

IC50 [1]: > 33000 nM
Structure (SMILES): NCCCC(=O)Nc1ccc2[nH]nc(N)c2c1

IC50 [1]: 18100 nM
Structure (SMILES): Nc1cccc(C(=O)Nc2ccc3[nH]nc(N)c3c2)c1

inhibition (INH) (Cytochrome P450 2D6): Not Active
inhibition (INH) (Cytochrome P450 3A4): Not Active
Stability [2]: Stable
inhibition (INH) (Cytochrome P450 1A2): Not Active
Stability [3]: Stable
Stability [4]: Stable
inhibition (INH) (Cytochrome P450 2C9): Not Active
IC50 [1]: 110 nM
Structure (SMILES): COc1ccccc1Nc1n[nH]c2ccc(NC(=O)C3CCCC(N)C3)cc12 (stereo unspecified)

IC50 [1]: 183 nM
Structure (SMILES): COC(=O)c1cccc(Nc2n[nH]c3ccc(NC(=O)C4CCCC(N)C4)cc23)c1 (stereo unspecified)

IC50 [1]: 1490 nM
Structure (SMILES): Nc1n[nH]c2ccc(NC(=O)[C@H]3CC[C@@H](N)CC3)cc12

half-life [5]: 3.73 h
inhibition (INH) (Cytochrome P450 2D6): Not Active
inhibition (INH) (Cytochrome P450 3A4): Not Active
inhibition (INH) (Cytochrome P450 1A2): Not Active
inhibition (INH) (Cytochrome P450 2C9): Not Active
Structure (SMILES): N[C@H]1CCC[C@@H](C(=O)Nc2ccc3[nH]nc(Nc4cccc5ccccc45)c3c2)C1

IC50 [1]: 2730 nM
Structure (SMILES): NC1CCCC(C(=O)Nc2ccc3[nH]nc(Nc4ccccc4)c3c2)C1 (stereo unspecified)

IC50 [1]: 4940 nM
Structure (SMILES): O=C(Nc1ccc2[nH]nc(Nc3cccc4ccccc34)c2c1)C1CCN1 (stereo unspecified)

IC50 [1]: 560 nM
Structure (SMILES): Nc1n[nH]c2ccc(NC(=O)C3CCNCC3)cc12

IC50 [1]: 4230 nM
Structure (SMILES): CN(C)C1CCCC(C(=O)Nc2ccc3[nH]nc(Nc4cccc5ccccc45)c3c2)C1 (stereo unspecified)

IC50 [1]: 416 nM
Structure (SMILES): NC1CCCC(C(=O)Nc2ccc3[nH]nc(Nc4ccc(Br)cc4)c3c2)C1 (stereo unspecified)

IC50 [1]: 40 nM
Structure (SMILES): NC1CCCC(C(=O)Nc2ccc3[nH]nc(Nc4cccc5cnccc45)c3c2)C1 (stereo unspecified)

inhibition (INH) (Cytochrome P450 2D6): Not Active
inhibition (INH) (Cytochrome P450 3A4): Not Active
Stability [2]: Stable
inhibition (INH) (Cytochrome P450 1A2): Not Active
Stability [3]: Stable
Stability [4]: Stable
inhibition (INH) (Cytochrome P450 2C9): Not Active
Structure (SMILES): NC1CCCC(C(=O)Nc2ccc3[nH]nc(Nc4cccc5ccccc45)c3c2)C1 (mixture of isomers)

IC50 [1]: 670 nM
Structure (SMILES): Nc1n[nH]c2ccc(NC(=O)C3CCCNC3)cc12 (racemic)

IC50 [1]: 840 nM
Structure (SMILES): Nc1n[nH]c2ccc(NC(=O)C3CCCCN3)cc12 (racemic)
